Assay [1] concerns the target T1, MAGL (Mus musculus (Mouse), UniProt O35678). The assay can be described thus: In vitro competitive activity-based protein profiling, mouse brain proteome. The assay is classed as biochemical. The note with it: for inhibition at 1 µM: mouse.
The target of assay [2] is T1, MAGL. Briefly: Mouse brain proteomes from inhibitor treated mice (oral gavage, brain MAGL activity 4 h after administration). The assay is classed as in vivo. As to conditions: 5 mg/kg oral gavage. The method, then:
Preparation of Mouse Brain Proteomes from Inhibitor Treated Mice.
Inhibitors were administered to wild-type C57B1/6J by oral gavage in a vehicle of polyethylene glycol.

Assay [3] addresses MAGL (Homo sapiens (Human), UniProt Q99685). Briefly: In vitro competitive activity-based protein profiling (gel-based, FP-Rh or HT-01 probe). The assay is classed as biochemical. As to conditions: for IC50: read-out: MAGL Human PC3 (IC50). The method, then:
In Vitro Competitive Activity-Based Protein Profiling.
Proteomes (human prefrontal cortex or cell membrane fractions) (50 μL, 1.0 mg/mL total protein concentration) were preincubated with varying concentrations of inhibitors at 37° C. After 30 min, FP-Rh or HT-01 (1.0 μL, 50 μM in DMSO) was added and the mixture was incubated for another 30 min at room temperature. Reactions were quenched with SDS loading buffer (15 μL—4×) and run on SDS-PAGE.

Setting [4] is: human PC3, read-out: MAGL % Inhibition at 1 μM (human PC3).
Where [5] appears, read: human PFC (prefrontal cortex), read-out: MAGL % Inhibition at 1 μM (human PFC).

Structures are written as SMILES. Where two headings read alike, the source gives them in different places.

By inhibition is commonly meant the drop in the measured response relative to a control, in per cent. One may read the IC50 as the concentration at which inhibition is half-maximal.

Chain of MAGL (Homo sapiens (Human), UniProt Q99685) (Q99685 whole entry): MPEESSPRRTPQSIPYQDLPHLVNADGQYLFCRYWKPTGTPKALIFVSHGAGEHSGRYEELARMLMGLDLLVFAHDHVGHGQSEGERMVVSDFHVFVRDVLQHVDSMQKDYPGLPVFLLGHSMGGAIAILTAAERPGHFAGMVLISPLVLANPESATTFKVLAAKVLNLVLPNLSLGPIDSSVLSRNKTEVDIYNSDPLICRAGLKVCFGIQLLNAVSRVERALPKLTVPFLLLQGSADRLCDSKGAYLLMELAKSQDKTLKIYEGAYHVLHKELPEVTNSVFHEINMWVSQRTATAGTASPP
T1 sequence (O35678 whole entry): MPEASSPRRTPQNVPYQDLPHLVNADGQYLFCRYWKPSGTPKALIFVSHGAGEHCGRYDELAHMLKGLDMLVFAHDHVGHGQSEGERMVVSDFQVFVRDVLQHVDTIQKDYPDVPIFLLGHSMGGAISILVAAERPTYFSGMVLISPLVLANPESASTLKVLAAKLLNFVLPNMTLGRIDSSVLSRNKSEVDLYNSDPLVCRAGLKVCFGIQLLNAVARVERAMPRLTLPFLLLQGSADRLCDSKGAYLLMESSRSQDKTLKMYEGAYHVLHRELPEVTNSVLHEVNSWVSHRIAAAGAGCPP

As for `COCC(C)N1CCn2cc(C(=O)N3CCCC34CCN(C(=O)OC(C(F)(F)F)C(F)(F)F)CC4)nc2C1` (centres unmarked) [Example 169, 1.1,1,3,3,3-Hexafluoropropan-2-yl 1-(7-(1-methoxypropan-2-yl)-5,6,7,8-tetrahydroimidazo [1,2-a]pyrazine-2-carbonyl)-1,8-diazaspiro[4.5] decane-8-carboxylate], the inhibition at 1 µM on MAGL [1], on MAGL [3] (setting [4]) and at MAGL [3] (setting [5]) was above 75% each time. In addition, at MAGL [2], the “MAGL % Inhibition at 5 mg/kg (Mouse)” value was “# (% inhibition less or equal to 25%)”. At MAGL [3] (human PC3), the IC50 is below 100 nM.

Turning to `CC1(CN2CCn3cc(C(=O)N4CCCC45CCN(C(=O)OC(C(F)(F)F)C(F)(F)F)CC5)nc3C2)COC1` [Example 170, 1,1,1,3,3,3-Hexafluoropropan-2-yl 1-(7-((3-methyloxetan-3-yl)methyl)-5,6,7,8-tetrahydroimidazo [1,2-a]pyrazine-2-carbonyl)-1,8-diazaspiro[4.5] decane-8-carboxylate], the inhibition at 1 µM on MAGL [1], on MAGL [3] (setting [4]) and on MAGL [3] (setting [5]) was above 75% in each case. In addition, the “MAGL % Inhibition at 5 mg/kg (Mouse)” value on MAGL [2] is given as “# (% inhibition less or equal to 25%)”. In addition, the IC50 at MAGL [3] (human PC3) is below 100 nM.

In the case of `CC1(NC(=O)c2cn3c(n2)CN(C2CC2)CC3)CCN(C(=O)OC(C(F)(F)F)C(F)(F)F)CC1` [Example 174, 1,1,1,3,3,3-Hexafluoropropan-2-yl 4-(7-cyclopropyl-5,6,7,8-tetrahydroimidazo[1,2-a]pyrazine-2-carboxamido)-4-methylpiperidine-1-carboxylate], the inhibition at 1 µM on MAGL [1], at MAGL [3] (setting [4]) and on MAGL [3] (setting [5]) was above 75% in each case. Further, at MAGL [2], the “MAGL % Inhibition at 5 mg/kg (Mouse)” value is reported as “### (% inhibition is greater than or equal to 75%)”. Further, the IC50 on MAGL [3] (human PC3) was below 100 nM.

In the case of `CN(C(=O)C1(c2cnccn2)CC1)C1(C)CCN(C(=O)OC(C(F)(F)F)C(F)(F)F)CC1` [Example 176, 1,1,1,3,3,3-Hexafluoropropan-2-yl 4-methyl-4-(N-methyl-1-(pyrazin-2-yl)cyclopropane-1-carboxamido) piperidine-1-carboxylate], the inhibition at 1 µM at MAGL [1], at MAGL [3] (setting [4]) and on MAGL [3] (setting [5]) was above 75% in each case. Moreover, the “MAGL % Inhibition at 5 mg/kg (Mouse)” value at MAGL [2] is on record as “# (% inhibition less or equal to 25%)”. The IC50 on MAGL [3] (human PC3) is below 100 nM.

Consider `O=C(OC(C(F)(F)F)C(F)(F)F)N1CCC2(CCCN2C(=O)C2(c3cccnn3)CC2)CC1` [Example 179, 1,1,1,3,3,3-Hexafluoropropan-2-yl 1-(1-(pyridazin-3-yl)cyclopropane-1-carbonyl)-1,8-diazaspiro [4.5]decane-8-carboxylate], for which the inhibition at 1 µM on MAGL [1], at MAGL [3] (setting [4]) and on MAGL [3] (setting [5]) was above 75% each time. Also, the “MAGL % Inhibition at 5 mg/kg (Mouse)” value at MAGL [2] is “## (% inhibition is less than 75% and greater than 25%)”. Also, the IC50 on MAGL [3] (human PC3) is below 100 nM.

Regarding `O=C(OC(C(F)(F)F)C(F)(F)F)N1CCC2(CCCN2C(=O)C2(c3ncc(F)cn3)CC2)CC1` [Example 180, 1,1,1,3,3,3-Hexafluoropropan-2-yl 1-(1-(5-fluoropyrimidin-2-yl)cyclopropane-1-carbonyl)-1,8-diazaspiro[4.5] decane-8-carboxylate], the inhibition at 1 µM at MAGL [1], on MAGL [3] (setting [4]) and at MAGL [3] (setting [5]) was above 75% each time. The “MAGL % Inhibition at 5 mg/kg (Mouse)” value at MAGL [2] is listed as “### (% inhibition is greater than or equal to 75%)”. Moreover, on MAGL [3] (human PC3), the IC50 was below 100 nM.

As for `CC1(NC(=O)c2cn3c(n2)CN(C(=O)C2(C)CC2)CC3)CCN(C(=O)OC(C(F)(F)F)C(F)(F)F)CC1` [Example 190, 1,1,1,3,3,3-Hexafluoropropan-2-yl 4-methyl-4-(7-(1-methylcyclopropane-1-carbonyl)-5,6,7,8-tetrahydroimidazo[1,2-a]pyrazine-2-carboxamido) piperidine-1-carboxylate], the inhibition at 1 µM at MAGL [1] and at MAGL [3] (setting [4]) was above 75% in each case. In addition, the “MAGL % Inhibition at 5 mg/kg (Mouse)” value at MAGL [2] is listed as “# (% inhibition less or equal to 25%)”. At MAGL [3] (human PC3), the IC50 is below 100 nM.

For the compound `CC1(NC(=O)c2cn3c(n2)CN(C(=O)C(C)(C)C)CC3)CCN(C(=O)OC(C(F)(F)F)C(F)(F)F)CC1` [Example 191, 1,1,1,3,3,3-Hexafluoropropan-2-yl 4-methyl-4-(7-pivaloyl-5,6,7,8-tetrahydroimidazo[1,2-a]pyrazine-2-carboxamido) piperidine-1-carboxylate], the inhibition at 1 µM at MAGL [1] and on MAGL [3] (setting [4]) was above 75% in each case. On MAGL [2], the “MAGL % Inhibition at 5 mg/kg (Mouse)” value was “# (% inhibition less or equal to 25%)”. Also, the IC50 at MAGL [3] (human PC3) is below 100 nM.

Turning to `CC(C)Oc1cnc(C2(C(=O)N3CCCC34CCN(C(=O)OC(C(F)(F)F)C(F)(F)F)CC4)CC2)nc1` [Example 194, 1,1,1,3,3,3-Hexafluoropropan-2-yl 1-(1-(5-isopropoxypyrimidin-2-yl)cyclopropane-1-carbonyl)-1,8-diazaspiro [4.5]decane-8-carboxylate], the inhibition at 1 µM at MAGL [1], at MAGL [3] (setting [4]) and on MAGL [3] (setting [5]) was above 75% in each case. At MAGL [2], the “MAGL % Inhibition at 5 mg/kg (Mouse)” value is “### (% inhibition is greater than or equal to 75%)”. Moreover, the IC50 at MAGL [3] (human PC3) was below 100 nM.

Regarding `COc1nccc(C2(C(=O)N3CCCC34CCN(C(=O)OC(C(F)(F)F)C(F)(F)F)CC4)CC2)n1` [Example 200, 1,1,1,3,3,3-Hexafluoropropan-2-yl 1-(1-(2-methoxypyrimidin-4-yl)cyclopropane-1-carbonyl)-1,8-diazaspiro [4.5]decane-8-carboxylate], the inhibition at 1 µM on MAGL [1], at MAGL [3] (setting [4]) and on MAGL [3] (setting [5]) was above 75% each time. Further, the “MAGL % Inhibition at 5 mg/kg (Mouse)” value at MAGL [2] is “### (% inhibition is greater than or equal to 75%)”. At MAGL [3] (human PC3), the IC50 is below 100 nM.

Take `CC1(NC(=O)c2nnc3n2CCN(C2CC2)C3)CCN(C(=O)OC(C(F)(F)F)C(F)(F)F)CC1` [Example 204, 1,1,1,3,3,3-Hexafluoropropan-2-yl 4-(7-cyclopropyl-5,6,7,8-tetrahydro-[1,2,4]triazolo[4,3-a]pyrazine-3-carboxamido)-4-methylpiperidine-1-carboxylate]: the inhibition at 1 µM on MAGL [1], at MAGL [3] (setting [4]) and at MAGL [3] (setting [5]) was above 75% throughout. For the same compound, at MAGL [2], the “MAGL % Inhibition at 5 mg/kg (Mouse)” value is given as “### (% inhibition is greater than or equal to 75%)”. Also, at MAGL [3] (human PC3), the IC50 is below 100 nM.

In the case of `CC(C)(O)CN1CCn2c(nnc2C(=O)NC2(C)CCN(C(=O)OC(C(F)(F)F)C(F)(F)F)CC2)C1` [Example 206, 1,1,1,3,3,3-Hexafluoropropan-2-yl 4-(7-(2-hydroxy-2-methylpropyl)-5,6,7,8-tetrahydro-[1,2,4]triazolo[4,3-a]pyrazine-3-carboxamido)-4-methylpiperidine-1-carboxylate], the inhibition at 1 µM at MAGL [1], on MAGL [3] (setting [4]) and on MAGL [3] (setting [5]) was above 75% in each case. Besides, at MAGL [2], the “MAGL % Inhibition at 5 mg/kg (Mouse)” value was “### (% inhibition is greater than or equal to 75%)”. Moreover, the IC50 at MAGL [3] (human PC3) is below 100 nM.

On to `CC1(NC(=O)c2nnc3n2CCN(C2COC2)C3)CCN(C(=O)OC(C(F)(F)F)C(F)(F)F)CC1` [Example 207, 1,1,1,3,3,3-Hexafluoropropan-2-yl 4-methyl-4-(7-(oxetan-3-yl)-5,6,7,8-tetrahydro-[1,2,4]triazolo [4,3-a]pyrazine-3-carboxamido) piperidine-1-carboxylate], for which the inhibition at 1 µM on MAGL [1], on MAGL [3] (setting [4]) and at MAGL [3] (setting [5]) was above 75% throughout. Further, the “MAGL % Inhibition at 5 mg/kg (Mouse)” value at MAGL [2] is on record as “### (% inhibition is greater than or equal to 75%)”. At MAGL [3] (human PC3), the IC50 is below 100 nM.

Take `CC1(NC(=O)c2nnc3n2CCN(C2CCOC2)C3)CCN(C(=O)OC(C(F)(F)F)C(F)(F)F)CC1` (centres unmarked) [Example 208, 1,1,1,3,3,3-Hexafluoropropan-2-yl 4-methyl-4-(7-(THF-3-yl)-5,6,7,8-tetrahydro-[1,2,4]triazolo [4,3-a]pyrazine-3-carboxamido) piperidine-1-carboxylate]: the inhibition at 1 µM on MAGL [1], on MAGL [3] (setting [4]) and at MAGL [3] (setting [5]) was above 75% in each case. Moreover, the “MAGL % Inhibition at 5 mg/kg (Mouse)” value at MAGL [2] was “### (% inhibition is greater than or equal to 75%)”. Further, on MAGL [3] (human PC3), the IC50 is below 100 nM.

Take `CC1(NC(=O)c2nnc3n2CCN(C2CCOCC2)C3)CCN(C(=O)OC(C(F)(F)F)C(F)(F)F)CC1` [Example 209, 1,1,1,3,3,3-Hexafluoropropan-2-yl 4-methyl-4-(7-(tetrahydro-2H-pyran-4-yl)-5,6,7,8-tetrahydro-[1,2,4]triazolo [4,3-a]pyrazine-3-carboxamido) piperidine-1-carboxylate]: the inhibition at 1 µM at MAGL [1], at MAGL [3] (setting [4]) and on MAGL [3] (setting [5]) was above 75% throughout. Also, the “MAGL % Inhibition at 5 mg/kg (Mouse)” value on MAGL [2] is “### (% inhibition is greater than or equal to 75%)”. Moreover, at MAGL [3] (human PC3), the IC50 was below 100 nM.

Turning to `CC(C)n1cc(CN2CCCC23CCN(C(=O)OC(C(F)(F)F)C(F)(F)F)CC3)c(-c2ccccc2F)n1` [Example 221, 1,1,1,3,3,3-Hexafluoropropan-2-yl 1-((3-(2-fluorophenyl)-1-isopropyl-1H-pyrazol-4-yl)methyl)-1,8-diazaspiro[4.5] decane-8-carboxylate], the inhibition at 1 µM at MAGL [1] is above 75%. The IC50 on MAGL [1] (mouse brain) and on MAGL [3] (human PC3) was below 100 nM each time. In addition, the “MAGL % Inhibition at 5 mg/kg (Mouse)” value at MAGL [2] was “### (% inhibition is greater than or equal to 75%)”.

The values above are taken from patent US11142526B2, “Spirocycle compounds and methods of making and using same” (H. Lundbeck A/S, priority 2017, dated 2021).
